Converted amounts (≈) assume the structure as drawn. Read-outs that look alike come from different tables or passages of the source.
What was measured:
[1] = test system: M. kansasii CNCTC My 235/80 (identical with ATCC 12478; MK 235/80); experiment: in vitro antimycobacterial MIC, dilution micromethod in Šula's semisynthetic medium; type: cell-based, Mycobacterium kansasii
[2] = lipophilicity by isocratic RP-HPLC (log k, k, log kw, S); type: physicochemical; details: for log kw: extrapolated to 100% water from log k versus ϕM; for S (slope): slope of log k versus ϕM regression
Description: Octadecyl-functionalized silica gel was currently used as a stationary phase (SPh) and a […] of two solvents at different volume ratios modified retention properties of the SPh. Liquid binary mixtures of methanol (MeOH) with water were employed as mobile phases (MPhs) in the isocratic RP-HPLC. The MeOH modifier was preferred because of similarity of both observed and extrapolated lipophilicity parameters with the ones determined in the octan-1-ol/water partition system, considering also sensitivity to H-bond donor properties of investigated compounds [41].
The modifier was applied in different volume concentrations, which varied from […] (v/v) with 5% increments. This interval was chosen due to very high lipophilicity of investigated salts. Practically, lower volume concentration of MeOH, i.e., less than 85% (v/v) in used MPhs, caused uncertainty of retention times (tr) due to notable peaks broadening, especially within subsets 1i–l and 1m–p. […] The highest tr parameters were found for the molecules 1k (tr = 47.108 min) and 1l (tr = 70.012 min) in the MPh containing 85% proportion (v/v) of MeOH (Table 2).
According to the authors’ opinions based on systematic scientific literature survey, a current research paper was the first, which aimed the log kw parameters of 2-/3-alkoxyphenylcarbamic acid derivatives containing two centers of protonation. The log kw values were extrapolated from intercepts of a relationship between log k and volume fraction of the MPh modifier (ϕM) using the Snyder–Soczewiński linear solvent strength model. The relationship was justified by R > 0.9900, Adj. R^2 > 0.9750 as well as F > 180.00 for calculation of particular log kw parameters (Table 3).
The HPLC separation module Waters e2695 equipped with a Waters 2996 PDA Detector (Waters Corp., Milford, MA, USA) and chromatographic column Symmetry C18 × 5 μm, 4.6 × 250 mm, Part No. W21751W016 (Waters Corp.) were used for estimation of lipophilic properties of the compounds 1a–p at 21 °C.
Isocratic elution was carried out using mobile phases consisting of methanol p.a. (MeOH; Honeywell, Paris, France) and purified water in various volume ratios (80:20, 85:15, 90:10, 95:5 (v/v) and pure MeOH, respectively). Distilled water (CentralChem, Bratislava, Slovak Republic) was purified by the Aquinity2 P10 ultra-pure water system for production of ultra-pure water with an integrated 10 L permeate tank (membraPure, Hennigsdorf, Germany).
Total flow of the column was 1.0 mL/min, injection volume was 4 μL and column temperature was set to 40 °C. The detection wavelengths varying from 236 nm to 238 nm were chosen for current experimental procedures.
Lipophilicity of the compounds 1a–p was determined by reversed-phase high-performance liquid chromatography (RP-HPLC). Methanol (MeOH)/water mobile phases with varying volume ratio of the organic modifier and water (80:20, 85:15, 90:10, 95:5 (v/v) and pure MeOH, respectively) were chosen.
A methanolic solution of potassium iodine was used for dead time (td) determination. Retention factors (capacity factors; k) were calculated according to Equation (17):k = (tr− td)/td(17) where tr was retention time of a solute (in min), the td parameter denoted dead time of potassium iodine, an unretained analyte (in min).
The observed retention (tr) and dead (td) times were means of three independent determinations. Average td values of potassium iodine in used MPhs were as follows: 2.237 min (MeOH/water ratio (v/v) was 80:20), 2.245 min (85:15), 2.245 min (90:10), 2.228 min (95:5) and 2.210 min (pure MeOH), respectively. […]

[3] = 14-day cultivation, read-out: MIC MK 235/80 14-d
[4] = 21-day cultivation, read-out: MIC MK 235/80 21-d
[5] = Mycobacterium kansasii, ATCC12478, 168 h, 7-day cultivation, read-out: MIC MK 235/80 7-d
[6] = mobile phase MeOH/water 80:20 (v/v)
[7] = mobile phase MeOH/water 85:15 (v/v)
[8] = mobile phase MeOH/water 90:10 (v/v)
[9] = mobile phase MeOH/water 95:5 (v/v)
[10] = Mycobacterium kansasii, ATCC12478, 168 h, read-out: MIC MK 235/80 7-d
[11] = Mycobacterium kansasii, ATCC12478, 336 h, read-out: MIC MK 235/80 14-d
[12] = Mycobacterium kansasii, ATCC12478, 504 h, read-out: MIC MK 235/80 21-d

| Compound | MIC [1, 3] | MIC [1, 4] | MIC [1, 5] | log kw [2] | k (retention factor) [2, 6] | log k [2, 6] | k (retention factor) [2, 7] | log k [2, 7] | k (retention factor) [2, 8] | log k [2, 8] | k (retention factor) [2, 9] | log k [2, 9] | k (retention factor) ([2]; mobile phase pure MeOH) | log k ([2]; mobile phase pure MeOH) | S (slope) [2] | MIC [1, 10] | MIC [1, 11] | MIC [1, 12] | also measured |
| --- | --- | --- | --- | --- | --- | --- | --- | --- | --- | --- | --- | --- | --- | --- | --- | --- | --- | --- | --- |
| CCCCCCCOc1cccc(NC(=O)OC(CN(CCC)CCC)CN2CCCCCC2)c1.O=C(O)C(=O)O (centres unmarked) [1l, 1-[2-[({[3-(hept-yloxy)phenyl]amino}carbonyl)oxy]-3-(dipropylammonio)propyl]azepanium oxalate] | 32 µM | 32 µM | 16 µM | 5.8966 | 30.4159 | 1.4831 | 16.4135 | 1.2152 | 9.1601 | 0.9619 | 4.2374 | 0.6271 | 2.5096 | 0.3996 | 5.5102 |  |  |  |  |
| CCCCOc1cccc(NC(=O)OC(CN(CCC)CCC)CN2CCCCCC2)c1 (centres unmarked) [1m] |  |  | 16 µM (≈ 7.16 µg/mL) | 4.7099 | 6.0325 | 0.7805 | 3.1060 | 0.4922 | 1.8599 | 0.2695 | 1.1026 | 0.0424 | 0.5922 | −0.2275 | 4.9316 |  |  |  | MIC ([1]; Mycobacterium kansasii, ATCC12478, 336 h, 14-day cultivation, read-out: MIC MK 235/80 14-d): 16 µM (≈ 7.16 µg/mL); MIC ([1]; Mycobacterium kansasii, ATCC12478, 504 h, 21-day cultivation, read-out: MIC MK 235/80 21-d): 32 µM (≈ 14.3 µg/mL) |
| CCCCCOc1cccc(NC(=O)OC(CN(CCC)CCC)CN2CCCCCC2)c1.Cl.Cl (centres unmarked) [1n, 1-[2-[({[3-(pentyloxy)phenyl]amino}carbonyl)oxy]-3-(di-propylammonio)propyl]azepanium dichloride] |  |  |  | 5.2087 | 8.9166 | 0.9502 | 4.5102 | 0.6542 | 2.6333 | 0.4205 | 1.2419 | 0.0941 | 0.7858 | −0.1047 | 5.3398 | 8 µM | 8 µM | 8 µM | MIC ([1]; Mycobacterium kansasii, ATCC12478, read-out: MIC MK 235/80): 8 µM |
| CCCCCCOc1cccc(NC(=O)OC(CN(CCC)CCC)CN2CCCCCC2)c1.Cl.Cl (centres unmarked) [1o, 1-[2-[({[3-(hexyloxy)phenyl]amino}-carbonyl)oxy]-3-(dipropylammonio)propyl]azepanium dichloride] |  |  |  | 5.6569 | 12.0420 | 1.0807 | 5.0804 | 0.7059 | 3.2915 | 0.5174 | 1.2868 | 0.1095 | 0.8674 | −0.0618 | 5.7628 | 8 µM | 16 µM | 16 µM |  |
| CCCCCCCOc1cccc(NC(=O)OC(CN(CCC)CCC)CN2CCCCCC2)c1.Cl.Cl (centres unmarked) [1p, 1-[2-[({[3-(heptyloxy)phenyl]amino}carbonyl)-oxy]-3-(dipropylammonio)propyl]azepanium dichloride] | 8 µM | 8 µM |  | 6.1749 | 14.0734 | 1.1484 | 6.6298 | 0.8215 | 4.0476 | 0.6072 | 1.6036 | 0.2051 | 0.7759 | −0.1102 | 6.2672 |  |  |  | MIC ([1]; 7-day cultivation, read-out: MIC MK 235/80 7-d): 8 µM; MIC ([1]; Mycobacterium kansasii, ATCC12478, cultivation time not given, read-out: MIC MK 235/80): 8 µM |

Source: publication PMC6222509, “Dibasic Derivatives of Phenylcarbamic Acid against Mycobacterial Strains: Old Drugs and New Tricks?” (Molecules : A Journal of Synthetic Chemistry and Natural …, 2018)
